Assay results: patent US9499508B2, “2-pyrones” (MERCK PATENT GMBH, priority 2010, dated 2016)

Assays:
normal human adipocytes = assay: Lipolysis, unesterified fatty acids liberated from adipocytes; format: cell-based; settings: 2 hours; for lipolytic activity, dependence on concentration: 0.25 mM, 0.5 mM, 1 mM and 2 mM
Experimental: The study is carried out using normal human adipocytes originating from the lower abdomen biopsy of a person. The hypodermis is isolated from the biopsy and incubated at 37° C. for 30 minutes with collagenase solution. The separated adipocytes are washed and diluted with assay medium (MEM without Phenol Red, penicillin 25 UI/ml/streptomycin […], L-glutamine 2 mM, bovine serum albumin (BSA), fatty acid-free: 0.5% (p/v)).
The test solutions or the caffeine reference are added to the cell suspensions, and the mixtures are incubated at 37° C. and in a 5% CO2 atmosphere for 2 hours.
After this time, the unesterified fatty acids liberated from the samples are quantified. The measurement is carried out using a Wako NEFA-C test kit in accordance with the instruction manual.

calgranulin A (S100A8) = assay: cDNA array, gene expression of S100A8; format: cell-based; settings: primary epidermal keratinocytes, 24 hours
Experimental: (§1) The assay is carried out using primary epidermal keratinocytes. After incubation at 37° C. and in a 5% CO2 atmosphere for 48 hours, the culture medium (DPBS and HyQtase cell detachment solution) is removed, and the test substances 4-hydroxy-6-methyl-2-pyrone Ia (40 μM) and 3-((E)-3,7-dimethylocta-2,6-dienyl)-4-hydroxy-6-methyl-2-pyrone Ii ([…]) in assay medium (keratinocytes basal medium M2 and supplement mix) are added. All-trans retinoic acid is used as positive control. The cells are then cultured at 37° C. and under 5% CO2 for 24 hours.
(§2) The mRNA is isolated using the RNEASY Minikit test kit from Qiagen in accordance with the instruction manual. 1 μg of the RNA is then in each case converted into cDNA with the aid of the Firsts Strand cDNA synthesis kit from Roche. The 20 μl of cDNA obtained are diluted 1/10, and 110 μl of TaqMan™ Universal PCR Master Mix are in each case added to 110 μl of the cDNA samples. 100 μl are pipetted per slot into the Custom TaqMan™ array cards. The cards are sealed, centrifuged and then measured using the TaqMan™ 7900HT. The values obtained are standardised. Values less than or equal to −1.5 indicate moderate to strong downregulation of the expression of the genes investigated.

loricrin (LOR) = assay: cDNA array, gene expression of LOR; format: cell-based; settings: primary epidermal keratinocytes, 24 hours
Experimental: (§3) The assay is carried out using primary epidermal keratinocytes. […] All-trans retinoic acid is used as positive control. The cells are then cultured at 37° C. and under 5% CO2 for 24 hours.
as §2

desmoglein 1 (DSG1) = assay: cDNA array, gene expression of DSG1; format: cell-based; settings: primary epidermal keratinocytes, 24 hours
Experimental: as §1, §2
(§4) A second group of genes (Table 2) considered encodes for proteins which correlate with cell-cell connections. Corneodesmosin (CDSN), desmoglein 1 (DSG1), desmoplakin (DSP) and desmocollin 3 (DSC3) are tested, the associated regulation factors are shown in Table 2. […] The downregulation of this protein family is known for retinoids.

involucrin (IVL) = assay: cDNA array, gene expression of IVL; format: cell-based; settings: primary epidermal keratinocytes, 24 hours
Experimental: as §3, §2

[1] = system: skin explants from the lower abdomen tissue; assay: Ex-vivo study on skin explants, histology; parameters: species or system human
Experimental: Histological explants having an average diameter of 10 mm from the lower abdomen tissue of a person are prepared. The pieces of tissue are stored in BEM medium in a moist, 5% CO2 atmosphere at 37° C. The tissue is divided into 3 batches of 6 explants each.
Batch K represents the negative control. Only the vehicle is applied to batch V. Batch P is treated with 4-hydroxy-6-methyl-2-pyrone Ia (1% in Mygliol/ethanol 80/20). 30 μl of the 1% substance solutions in Myliol/ethanol (80/20) are applied using a round filter paper and allowed to act for 2 hours. Applications are carried out on day 0, 1, 4, 6 and 7.
On the 8th day, 3 pieces of tissue from each batch are fixed in Bouin solution. After fixing for 48 hours, the samples are dehydrated by means of Leica TP 1020 and soaked in paraffin. Tissue sections with a thickness of 5 μm are produced from the paraffin blocks using a microtome and mounted on Superfrost specimen slides. The microscopic investigation is carried out using a Leica Orthoplan microscope after the tissue sections mounted on specimen slides have been stained with Masson-Goldner trichrome stain. In order to be able to assess the effect of the substances, the thickness of the epidermis or the change thereof is measured.

[2] = system: transglutaminase 1 (TGM1); assay: cDNA array, gene expression of TGM1; format: cell-based; settings: primary epidermal keratinocytes, 24 hours
Experimental: as §1, §2

Corneodesmosin (CDSN) = assay: cDNA array, gene expression of CDSN; format: cell-based; settings: primary epidermal keratinocytes, 24 hours
Experimental: as §1, §2, §4

repetin (RPTN) = assay: cDNA array, gene expression of RPTN; format: cell-based; settings: primary epidermal keratinocytes, 24 hours
Experimental: as §3, §2

desmoplakin (DSP) = assay: cDNA array, gene expression of DSP; format: cell-based; settings: primary epidermal keratinocytes, 24 hours
Experimental: as §1, §2, §4

desmocollin 3 (DSC3) = assay: cDNA array, gene expression of DSC3; format: cell-based; settings: primary epidermal keratinocytes, 24 hours
Experimental: as §1, §2, §4

[3] = system: calmodulin-like protein (CALML5); assay: cDNA array, gene expression of CALML5; format: cell-based; settings: primary epidermal keratinocytes, 24 hours
Experimental: as §3, §2

calgranulin B (S100A9) = assay: cDNA array, gene expression of S100A9; format: cell-based; settings: primary epidermal keratinocytes, 24 hours
Experimental: as §1, §2

filaggrin (FLG) = assay: cDNA array, gene expression of FLG; format: cell-based; settings: primary epidermal keratinocytes, 24 hours
Experimental: as §1, §2

Question: How did the “lipolytic activity, dependence on concentration” value (normal human adipocytes) turn out when `CCCCC(CC)Oc1cc(C)oc(=O)c1` (centres unmarked) [Ij, 4-(1-Ethylpentyloxy)-6-methyl-2-pyrone] was run?
Answer: increase the lipolytic activity as a function of concentration

Question: What about the “stimulation of lipolysis (triacylglycerin degradation)” value (from here on “stimulation of lipolysis”) (normal human adipocytes; 2 mM) of the same compound?
Answer: 57%

Question: With `Cc1cc(O)cc(=O)o1` [Ia, 4-hydroxy-6-methyl-2-pyrone] as the compound, how does the “S100A8 gene expression, standardised value” (calgranulin A (S100A8); 40 μM) read?
Answer: −1.74

Question: And the “LOR gene expression, standardised value” (loricrin (LOR); 40 μM)?
Answer: −4.56

Question: What about the “DSG1 gene expression, regulation factor” value (desmoglein 1 (DSG1); 40 μM) of the same compound?
Answer: −1.39

Question: What about the “IVL gene expression, standardised value” (involucrin (IVL); 40 μM) of the same compound?
Answer: −1.76

Question: And the “collagen network in the dermis along the dermo-epidermal junction zone” value ([1]; 1% in Mygliol/ethanol 80/20, topical on day 0, 1, 4, 6 and 7, day 8)?
Answer: becomes denser

Question: What about the “thicker epidermis compared with the vehicle” value ([1]; 1% in Mygliol/ethanol 80/20, topical on day 0, 1, 4, 6 and 7, measured on the 8th day) of the same compound?
Answer: 10%

Question: And the “TGM1 gene expression, standardised value” ([2]; 40 μM)?
Answer: −1.26

Question: What about the “CDSN gene expression, regulation factor” value (Corneodesmosin (CDSN); 40 μM) of the same compound?
Answer: −2.14

Question: And the “RPTN gene expression, standardised value” (repetin (RPTN); 40 μM)?
Answer: −3.33

Question: And the “DSP gene expression, regulation factor” value (desmoplakin (DSP); 40 μM)?
Answer: −1.40

Question: What about the “DSC3 gene expression, regulation factor” value (desmocollin 3 (DSC3); 40 μM) of the same compound?
Answer: −1.69

Question: And the “CALML5 gene expression, standardised value” ([3]; 40 μM)?
Answer: −3.14

Question: And the “S100A9 gene expression, standardised value” (calgranulin B (S100A9); 40 μM)?
Answer: −2.18

Question: And the “FLG gene expression, standardised value” (filaggrin (FLG); 40 μM)?
Answer: 1.01

Question: Which “lipolytic activity, dependence on concentration” value (normal human adipocytes) does the source give for `COc1cc(C)oc(=O)c1` [Ib, 4-Methoxy-6-methyl-2-pyrone] here?
Answer: increase the lipolytic activity as a function of concentration

Question: What about the “stimulation of lipolysis” value (normal human adipocytes; 2 mM) of the same compound?
Answer: 82%

Question: With `CC(C)=CCC/C(C)=C/Cc1c(O)cc(C)oc1=O` [Ii, 3-((E)-3,7-Dimethylocta-2,6-dienyl)-4-hydroxy-6-methyl-2-pyrone] as the compound, how does the “S100A8 gene expression, standardised value” (calgranulin A (S100A8); 50 μM) read?
Answer: −2.93

Question: And the “LOR gene expression, standardised value” (loricrin (LOR); 50 μM)?
Answer: −1.59

Question: And the “DSG1 gene expression, regulation factor” value (desmoglein 1 (DSG1); 50 μM)?
Answer: −8.20

Question: What about the “IVL gene expression, standardised value” (involucrin (IVL); 50 μM) of the same compound?
Answer: −3.82

Question: And the “TGM1 gene expression, standardised value” ([2]; 50 μM)?
Answer: −1.56

Question: What about the “CDSN gene expression, regulation factor” value (Corneodesmosin (CDSN); 50 μM) of the same compound?
Answer: −13.20

Question: What about the “RPTN gene expression, standardised value” (repetin (RPTN); 50 μM) of the same compound?
Answer: 1.57

Question: And the “DSP gene expression, regulation factor” value (desmoplakin (DSP); 50 μM)?
Answer: −1.53

Question: And the “DSC3 gene expression, regulation factor” value (desmocollin 3 (DSC3); 50 μM)?
Answer: −1.14

Question: What about the “CALML5 gene expression, standardised value” ([3]; 50 μM) of the same compound?
Answer: −2.58

Question: What about the “stimulation of lipolysis” value (normal human adipocytes; 1 mM) of the same compound?
Answer: −60%

Question: What about the “stimulation of lipolysis” value (normal human adipocytes; 2 mM) of the same compound?
Answer: −67%

Question: And the “S100A9 gene expression, standardised value” (calgranulin B (S100A9); 50 μM)?
Answer: −1.48

Question: What about the “FLG gene expression, standardised value” (filaggrin (FLG); 50 μM) of the same compound?
Answer: −4.67

Question: Which results are given for `CC1=C(/C=C/C(C)=C/C=C/C(C)=C/C(=O)O)C(C)(C)CCC1` [all-trans retinoic acid, All-trans retinoic acid, reference compound]?
Answer: S100A8 gene expression, standardised value (calgranulin A (S100A8); 5 μM): −3.26; LOR gene expression, standardised value (loricrin (LOR); 5 μM): −7.01; DSG1 gene expression, regulation factor (desmoglein 1 (DSG1); concentration not given): −9.22; IVL gene expression, standardised value (involucrin (IVL); 5 μM): −4.05; TGM1 gene expression, standardised value ([2]; 5 μM): −3.56; CDSN gene expression, regulation factor (Corneodesmosin (CDSN); concentration not given): −2.37; RPTN gene expression, standardised value (repetin (RPTN); 5 μM): −2.56; DSP gene expression, regulation factor (desmoplakin (DSP); concentration not given): −1.56; DSC3 gene expression, regulation factor (desmocollin 3 (DSC3); concentration not given): −1.23; CALML5 gene expression, standardised value ([3]; 5 μM): −2.93; S100A9 gene expression, standardised value (calgranulin B (S100A9); 5 μM): −3.49; FLG gene expression, standardised value (filaggrin (FLG); 5 μM): −3.20
